Laboratory results as given in US20250084087A1, “BICYCLIC HETEROCYCLES AS MRGPRX2 ANTAGONISTS” (Incyte Corporation, priority 2023, published 2025).

Tests used:
Format in all cases: cell-based
MRGPRX2 [1] = biological target: T1, MRGPRX2 (Homo sapiens, UniProt Q96LB1); test: MRGPRX2 IP1 HTRF assay; design: host or cells: CHO-K1; conditions: CHO-K1 cells stably expressing human MRGPRX2; IP1 accumulation; agonist Cortistatin 14 1 μM
T1 sequence (Q96LB1 1-330): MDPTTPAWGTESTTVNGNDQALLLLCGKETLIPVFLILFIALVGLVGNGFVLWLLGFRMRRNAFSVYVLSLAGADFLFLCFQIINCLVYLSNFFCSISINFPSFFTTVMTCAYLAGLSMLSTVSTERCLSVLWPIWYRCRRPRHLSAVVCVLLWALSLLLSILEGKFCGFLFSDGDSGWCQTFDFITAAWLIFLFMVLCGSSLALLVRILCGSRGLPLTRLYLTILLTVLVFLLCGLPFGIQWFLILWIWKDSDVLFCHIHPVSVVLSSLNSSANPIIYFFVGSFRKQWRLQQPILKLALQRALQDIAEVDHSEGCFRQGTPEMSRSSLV
In short: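 CHO-K1 cells stably expressing human MRGPRX2, preincubated with compound 1 h at 37 °C, then stimulated with 1 μM Cortistatin 14 for 1 h. IP1 measured by HTRF against standard curve, normalized to DMSO and reference antagonist controls; IC50 from 3- or 4-parameter Hill fit.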

MRGPRX2 [2] = biological target: T1, MRGPRX2; test: MRGPRX2 FLIPR calcium mobilization assay; design: host or cells: CHO-K1; conditions: CHO-K1 cells stably expressing human MRGPRX2; Ca2+ release; agonist Cortistatin-14 at EC80
In short: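 CHO-K1 cells stably expressing the receptor, loaded with Calcium 6 dye, then preincubated 30 min at r.t. with compound in HBSS/20 mM HEPES pH 7.4. Cortistatin-14 at EC80 added; baseline-adjusted maximum RFU read over 110 s. IC50 from 3- or 4-parameter Hill fit.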

MRGPRX2 [3] = biological target: T1, MRGPRX2; test: MRGPRX2 β-Arrestin recruitment assay (PathHunter); design: host or cells: CHO-K1 (PathHunter); conditions: PathHunter CHO-K1 MRGPRX2 β-Arrestin cell line; agonist Cortistatin 14 0.25 μM
In short: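 CHO-K1 PathHunter cells co-expressing ProLink-tagged MRGPRX2 and enzyme-acceptor-tagged β-arrestin were preincubated with compound 1 h at 37° C., then stimulated with cortistatin-14 (0.25 μM final) for 90 min. Enzyme-complementation luminescence read after 1 h detection; data normalized to DMSO and reference antagonist, IC50 from 3- or 4-parameter Hill fit.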

SMILES	IC50 (MRGPRX2 [1])	IC50 (MRGPRX2 [2])	IC50 (MRGPRX2 [3])
OCCNC1CC(CNc2cc(C(F)(F)F)nc3cc(Br)nn23)(c2ccccc2)C1 (stereo not drawn) [Example 44, 2-((3-(((2-Bromo-5-(trifluoromethyl)pyrazolo[1,5-a]pyrimidin-7-yl)amino)methyl)-3-phenylcyclobutyl)amino)ethan-1-ol]	0.1 to 100 nM	0.1 to 100 nM	0.1 to 100 nM
N#Cc1cnc(N2CC(CNc3cc(C(F)(F)F)nc4cc(C(F)(F)F)nn34)(c3ccc(F)cc3)C2)cn1 [Example 45, 5-(3-(((2,5-Bis(trifluoromethyl)pyrazolo[1,5-a]pyrimidin-7-yl)amino)methyl)-3-(4-fluorophenyl)azetidin-1-yl)pyrazine-2-carbonitrile]	0.1 to 100 nM	0.1 to 100 nM	0.1 to 100 nM
O=C(N[C@H]1CC[C@H](O)CC1)N1CC(CNc2cc(C(F)(F)F)nc3cc(C(F)(F)F)nn23)(c2ccc(F)cc2)C1 [Example 48, 3-(((2,5-Bis(trifluoromethyl)pyrazolo[1,5-a]pyrimidin-7-yl)amino)methyl)-3-(4-fluorophenyl)-N-((1r,4r)-4-hydroxycyclohexyl)azetidine-1-carboxamide]	0.1 to 100 nM	0.1 to 100 nM	0.1 to 100 nM
O=C(N[C@H]1C[C@H](O)C1)N1CC(CNc2cc(C(F)(F)F)nc3cc(C(F)(F)F)nn23)(c2ccc(F)cc2)C1 [Example 49, 3-(((2,5-Bis(trifluoromethyl)pyrazolo[1,5-a]pyrimidin-7-yl)amino)methyl)-3-(4-fluorophenyl)-N-((1r,3r)-3-hydroxycyclobutyl)azetidine-1-carboxamide]	0.1 to 100 nM	0.1 to 100 nM	0.1 to 100 nM
NC(=O)N1CC(CNc2cc(C(F)(F)F)nc3cc(Cl)nn23)(c2ccc(F)cc2)C1 [Example 57, 3-(((2-Chloro-5-(trifluoromethyl)pyrazolo[1,5-a]pyrimidin-7-yl)amino)methyl)-3-(4-fluorophenyl)azetidine-1-carboxamide]	0.1 to 100 nM	0.1 to 100 nM	0.1 to 100 nM
NC(=O)N1CC(CNc2cc(C(F)(F)F)nc3cc(Br)nn23)(c2ccc(Cl)cc2)C1 [Example 58, 3-(((2-Bromo-5-(trifluoromethyl)pyrazolo[1,5-a]pyrimidin-7-yl)amino)methyl)-3-(4-chlorophenyl)azetidine-1-carboxamide]	0.1 to 100 nM	0.1 to 100 nM	0.1 to 100 nM
NS(=O)(=O)N1CC(CNc2cc(C(F)(F)F)nc3cc(C(F)(F)F)nn23)(c2ccc(F)cn2)C1 [Example 59, 3-(((2,5-Bis(trifluoromethyl)pyrazolo[1,5-a]pyrimidin-7-yl)amino)methyl)-3-(5-fluoropyridin-2-yl)azetidine-1-sulfonamide]	0.1 to 100 nM	0.1 to 100 nM	0.1 to 100 nM
[2H]C([2H])([2H])NC(=O)N1CC(CNc2cc(C(F)(F)F)nc3cc(C(F)(F)F)nn23)(c2ccc(F)cn2)C1 [Example 61, 3-(((2,5-Bis(trifluoromethyl)pyrazolo[1,5-a]pyrimidin-7-yl)amino)methyl)-3-(5-fluoropyridin-2-yl)-N-(methyl-d3)azetidine-1-carboxamide]	0.1 to 100 nM	0.1 to 100 nM	0.1 to 100 nM
[2H]C([2H])([2H])NC(=O)N1CC(CNc2cc(C(F)(F)F)nc3cc(C(F)F)nn23)(c2ccc(F)cc2)C1 [Example 62, 3-(((2-(Difluoromethyl)-5-(trifluoromethyl)pyrazolo[1,5-a]pyrimidin-7-yl)amino)methyl)-3-(4-fluorophenyl)-N-(methyl-d3)azetidine-1-carboxamide]	0.1 to 100 nM	0.1 to 100 nM	0.1 to 100 nM
NC(=O)N1CC(CNc2cc(Cl)nc3cc(C(F)(F)F)nn23)(c2ccc(F)cc2)C1 [Example 66, 3-(((5-Chloro-2-(trifluoromethyl)pyrazolo[1,5-a]pyrimidin-7-yl)amino)methyl)-3-(4-fluorophenyl)azetidine-1-carboxamide]	0.1 to 100 nM	0.1 to 100 nM	0.1 to 100 nM
Cc1cc(NCC2(c3ccc(F)cc3)CN(C(N)=O)C2)n2nc(C(F)(F)F)cc2n1 [Example 67, 3-(4-Fluorophenyl)-3-(((5-methyl-2-(trifluoromethyl)pyrazolo[1,5-a]pyrimidin-7-yl)amino)methyl)azetidine-1-carboxamide]	0.1 to 100 nM	0.1 to 100 nM	0.1 to 100 nM

Further lines, results first:

IC50 (MRGPRX2 [1])	IC50 (MRGPRX2 [2])	IC50 (MRGPRX2 [3])	SMILES
0.1 to 100 nM	0.1 to 100 nM	0.1 to 100 nM	NS(=O)(=O)N1CC(CNc2cc(C(F)(F)F)nc3cc(C(F)(F)F)nn23)(n2cc(F)cn2)C1 [Example 9, 3-(((2,5-Bis(trifluoromethyl)pyrazolo[1,5-a]pyrimidin-7-yl)amino)methyl)-3-(4-fluoro-1H-pyrazol-1-yl)azetidine-1-sulfonamide]
0.1 to 100 nM	0.1 to 100 nM	0.1 to 100 nM	CNC(=O)N1CCC(CNc2cc(C)nc3nc(C(F)(F)F)nn23)(c2ccccc2)CC1 [Example 18, N-Methyl-4-(((5-methyl-2-(trifluoromethyl)-[1,2,4]triazolo[1,5-a]pyrimidin-7-yl)amino)methyl)-4-phenylpiperidine-1-carboxamide]
0.1 to 100 nM	0.1 to 100 nM	0.1 to 100 nM	CC(=O)N1CCC(CNc2cccc3nc(C(F)(F)F)cn23)(c2ccccc2)CC1 [Example 20, 1-(4-Phenyl-4-(((2-(trifluoromethyl)imidazo[1,2-a]pyridin-5-yl)amino)methyl)piperidin-1-yl)ethan-1-one]
0.1 to 100 nM	0.1 to 100 nM	0.1 to 100 nM	CNC(=O)N1CCC(CNc2cccc3nc(C(F)(F)F)cn23)(c2ccccc2)CC1 [Example 21, N-Methyl-4-phenyl-4-(((2-(trifluoromethyl)imidazo[1,2-a]pyridin-5-yl)amino)methyl)piperidine-1-carboxamide]
0.1 to 100 nM	0.1 to 100 nM	0.1 to 100 nM	NS(=O)(=O)N1CC(CNc2cc(C(F)(F)F)nc3cc(C(F)(F)F)nn23)(c2ccc(F)cc2)C1 [Example 30, 3-(((2,5-Bis(trifluoromethyl)pyrazolo[1,5-a]pyrimidin-7-yl)amino)methyl)-3-(4-fluorophenyl)azetidine-1-sulfonamide]
0.1 to 100 nM	0.1 to 100 nM	0.1 to 100 nM	NC(=O)N1CC(CNc2cc(C(F)(F)F)nc3cc(C(F)(F)F)nn23)(c2ccc(F)cc2)C1 [Example 31, 3-(((2,5-Bis(trifluoromethyl)pyrazolo[1,5-a]pyrimidin-7-yl)amino)methyl)-3-(4-fluorophenyl)azetidine-1-carboxamide]
0.1 to 100 nM	0.1 to 100 nM	0.1 to 100 nM	NS(=O)(=O)N1CC(CNc2cccc3nc(C(F)(F)F)nn23)(c2ccc(F)cc2)C1 [Example 32, 3-(4-Fluorophenyl)-3-(((2-(trifluoromethyl)-[1,2,4]triazolo[1,5-a]pyridin-5-yl)amino)methyl)azetidine-1-sulfonamide]
0.1 to 100 nM	0.1 to 100 nM	0.1 to 100 nM	NC(=O)N1CC(CNc2cccc3nc(C(F)(F)F)nn23)(c2ccc(F)cc2)C1 [Example 33, 3-(4-Fluorophenyl)-3-(((2-(trifluoromethyl)-[1,2,4]triazolo[1,5-a]pyridin-5-yl)amino)methyl)azetidine-1-carboxamide]
0.1 to 100 nM	0.1 to 100 nM	0.1 to 100 nM	Fc1ccc(C2(CNc3cccc4nc(C(F)(F)F)cn34)CCC2)cc1 [Example 36, N-((1-(4-Fluorophenyl)cyclobutyl)methyl)-2-(trifluoromethyl)imidazo[1,2-a]pyridin-5-amine]
0.1 to 100 nM	0.1 to 100 nM	0.1 to 100 nM	FC(F)(F)c1cn2c(NCC3(c4ccncc4)CCC3)cccc2n1 [Example 37, N-((1-(Pyridin-4-yl)cyclobutyl)methyl)-2-(trifluoromethyl)imidazo[1,2-a]pyridin-5-amine]
0.1 to 100 nM	0.1 to 100 nM	0.1 to 100 nM	COc1ccc(C2(CNc3cccc4nc(C(F)(F)F)cn34)CCOCC2)cc1 [Example 39, N-((4-(4-Methoxyphenyl)tetrahydro-2H-pyran-4-yl)methyl)-2-(trifluoromethyl)imidazo[1,2-a]pyridin-5-amine]
0.1 to 100 nM	0.1 to 100 nM	0.1 to 100 nM	CN1CCN(C2CC(CNc3cc(C(F)(F)F)nc4cc(Br)nn34)(c3ccccc3)C2)CC1 (stereo not drawn) [Example 43, 2-Bromo-N-((3-(4-methylpiperazin-1-yl)-1-phenylcyclobutyl)methyl)-5-(trifluoromethyl)pyrazolo[1,5-a]pyrimidin-7-amine]
